≈ marks a conversion by molar mass, not a printed value. Like-named read-outs stand apart in the source and are kept apart here.
What was measured:
KSHV virus [1] = settings: lytic stage; cited from earlier work
KSHV virus [2] = settings: latent stage; cited from earlier work
HHV 8 in latent stage = assay: Detection of latent HHV 8 DNA by RT-PCR in BC3 cells; assay type: cell-based; settings: BC-3, 144 h, 6 days of culture, drug 100 µM, read-out: inhibition of viral DNA (antiviral activity)
Description: The antiviral activity of the sulphonamide compounds of the present invention was investigated using two different types of tests. In the first one, the DNA of HHV 8 in latent stage was detected by RT-PCR (Real Time- Polymerase Chain Reaction) (see Fig. 1) and in the second one, the LANA antigen was tested using a flow cytometric assay.

MDM2-p53 complex = biological target: T1, MDM2-p53 complex (Homo sapiens, UniProt Q00987); assay: ELISA-based P53-MDM2 binding assay
T1 construct: purchased Sigma
T1 sequence (Q00987 whole entry, one chain of several): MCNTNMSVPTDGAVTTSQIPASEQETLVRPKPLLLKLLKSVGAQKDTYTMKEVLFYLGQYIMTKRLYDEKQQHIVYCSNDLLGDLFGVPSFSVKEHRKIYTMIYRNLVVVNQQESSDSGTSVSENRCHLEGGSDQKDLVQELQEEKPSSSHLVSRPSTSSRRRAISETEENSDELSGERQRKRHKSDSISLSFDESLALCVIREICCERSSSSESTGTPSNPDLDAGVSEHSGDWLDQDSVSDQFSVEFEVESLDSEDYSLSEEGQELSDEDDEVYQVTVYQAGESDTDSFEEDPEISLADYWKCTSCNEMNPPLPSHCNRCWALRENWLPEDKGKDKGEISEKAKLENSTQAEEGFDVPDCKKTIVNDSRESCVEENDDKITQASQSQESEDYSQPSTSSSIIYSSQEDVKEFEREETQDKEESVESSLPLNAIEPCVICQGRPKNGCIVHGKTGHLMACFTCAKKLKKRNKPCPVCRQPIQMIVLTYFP
Description: In short, 96-well ELISA micro-plates (from Greiner Bio One, Austria) were coated for incubation overnight with 2 µg/mL p53 (human recombinant from Sigma) in PBS at 4 °C. The next day, the coating buffer was removed and the plates were incubated with Chemi-Blocker blocking buffer (from Merck-Millipore, Italy) for 2 hours at room temperature to block non-specific protein binding sites on the plate. […] The compounds under test were dissolved in DMSO (dimethyl sulfoxide, 5 mg/mL stock solution) and diluted in blocking buffer to obtain a final concentration of 50 µg/mL. The total incubation time of GST-MDM2 was 1 h. In order to evaluate the possible interactions of the compounds of the invention with, alternately, p53 and/or MDM2, the tests were conducted in three ways: a) pre-incubation with p53: the compounds were added to the coated micro-wells 30 min. before the GST-MDM2; b) pre-incubation with MDM2: the compounds were added to the GST-MDM2 solution for 30 minutes before adding to the wells; c) incubation after the formation of the p53-MDM2 complex: the compounds were added to the wells 30 minutes after treatment of GST-MDM2. After incubation, the plates were washed 4 times with PBST to remove the unbound MDM2 and incubated with a specific rabbit anti-GST monoclonal antibody (Sigma) diluted in 1/2000 blocking buffer for 1 h, followed by washing and incubation with a secondary immunoglobulin antibody conjugated with 1/200 anti-rabbit (horseradish) HR-peroxidase for 1 h (goat anti-rabbit IgG-HRP, Sigma). […] The absorbance was measured with a Microtiter plate reader (Model 680, from Bio-Rad, Hercules, CA) equipped with a 450 nm filter and the respective luminescence units (RLU) were measured. The inhibition percentage of the p53-MDM2 complex was calculated as follows: […]
Data are expressed as µg/mL ± SE average of three independent experiments.

[3] = Cytotoxicity (MTT cell viability) on BC3 cells; assay type: cell-based; settings: human
Description: (§1) A stock of human HUVEC umbilical cord primary cells (Invitrogen Life Technologies, UK) was cultured in a culture medium M200 (Gibco, Life Technologies, UK) with low serum growth supplement (LSGS, Invitrogen Life Technologies, UK). The HUVEC cells were always kept in a semi-confluent state and were sub-cultured at least once a week. Prior to testing, the cells were sub-cultured no more than 3-5 times. The BC3 cells permanently infected with HHV 8 were cultured in a RPMI 1640 medium supplemented with a 10% fetal calf serum (FCS) (Invitrogen Life Technologies, UK). The BC3 cells were used to produce 100x concentrated stocks of HHV 8, as described in the literature. The pellets of the virus was suspended in RPMI, filtered through a 0.22 µm filter and stored at -80 °C until use. The quantitative analysis of viral genomes present in the stock preparation was obtained by a real-time polymerase chain reaction (qPCR). […] For infection of cells, approximately 5.0 x 10^4 HUVEC cells/mL were seeded in 12 multi-well plates. The cells were infected with HHV 8, concentrated to a multiplicity of at least 10-20 genomes per cell in an M200 containing 2 µg/mL polibrene (esadimetrin bromide) for 2 hours at 37 °C. […] Only cell mono-layers with at least 70-80% of HHV 8 infected cells were used for the experiments.

[4] = Cytotoxicity (MTT cell viability) on HUVEC primary cells; assay type: cell-based; settings: human
Description: as §1

in vitro = settings: human, thp-1 cells
Description: The THP-1 cells were purchased from Life Technologies (UK) and were cultured in RPMI 1640 medium with 10% fetal bovine serum (FBS).
The cytotoxicity of the compounds under test was assessed by measuring the effect on the cell morphology and the cell viability in vitro. Cell mono-layers were prepared in 24-well tissue culture plates and exposed to various concentrations of the compounds being tested.
The plates were controlled by optical microscopy after 24, 48 and 72 h. Cytotoxicity was evaluated as morphologic changes (for example, rounding, contractions, detachments). The cell viability was determined by means of a tetrazolium-based colorimetric method using the compound 3-(4,5-dimethylthiazol-2-yl)-2,5-diphenyl-tetrazolium bromide (MTT). The cytotoxic dose of 50% (CD50) is the concentration of the compound which reduces the absorbency of the control sample by 50%.

[5] = read-out: inhibition of MDM2-p53 complex formation

SMILES | Action on the lytic virus (KSHV virus [1]) | Action on the latent virus (KSHV virus [2]) | inhibition at 100 µM (HHV 8 in latent stage) [%] | also measured
Nc1nc2c(ncn2COCCO)c(=O)[nH]1 [Acyclovir] | inhibition | no inhibition | – | –
Cc1cc(NS(=O)(=O)c2ccc(N)cc2)no1 [BC6, sulfamethoxazole] | – | – | 93 | inhibition at 50 µg/mL (MDM2-p53 complex; [5]): 56%
O=C(O)P(=O)(O)O [Foscarnet] | inhibition | no inhibition | – | –
CC1(C)[C@@H](O[C@H]2O[C@H](C(=O)O)[C@@H](O)[C@H](O)[C@H]2O[C@@H]2O[C@H](C(=O)O)[C@@H](O)[C@H](O)[C@H]2O)CC[C@]2(C)[C@H]3C(=O)C=C4[C@@H]5C[C@@](C)(C(=O)O)CC[C@]5(C)CC[C@@]4(C)[C@]3(C)CC[C@@H]12 [Glycyrrhizic acid] | inhibition | Apoptosis | – | –
Nc1ccc(S(N)(=O)=O)cc1 [SA4, sulphanilamide] | – | – | 92 | inhibition at 50 µg/mL (MDM2-p53 complex; [5]): 50%
[H]/N=C(/N)NS(=O)(=O)c1ccc(N)cc1 [SG3, sulphaguanidine] | – | – | 52.3 | CC50 [3]: 100 µg/mL (≈ 467 µM); CC50 [4]: ~500 µg/mL (≈ 2330 µM); CC50 (in vitro): ~125 µg/mL (≈ 583 µM)
Nc1ccc(S(=O)(=O)Nc2nccs2)cc1 [ST5, sulfathiazole] | – | – | 88.5 | CC50 [3]: 100 µg/mL (≈ 393 µM); CC50 [4]: ~250 µg/mL (≈ 979 µM); inhibition at 50 µg/mL (MDM2-p53 complex; added to the ELISA wells 60 minutes after the complex had formed, 50 µg/mL, p = < 0.01, read-out: breaking down the complex already formed): ~48%; inhibition at 50 µg/mL (MDM2-p53 complex; compound added before the formation of the complex, 50 µg/mL, read-out: inhibition of MDM2-p53 complex formation): ~70%; CC50 (in vitro): ~30 µg/mL (≈ 117 µM)
